Results on two molecules are retold here after US20260083704A1, “LXR MODULATORS WITH BICYCLIC CORE MOIETY FOR TREATING DYSLIPIDEMIAS” (OrsoBio, Inc., priority 2022, published 2026).

Like-named read-outs stand apart in the source and are kept apart here. Some results are limits rather than exact numbers.

One data set concerns HFD-fed (DIO) mice. Kind of data set: Intestinal lipid absorption (3H-triolein tracer) in HFD-fed mice. In kind it is in vivo. Particulars: 5 mg/kg oral gavage. The source says: (§1) Data are shown as mean±SD. N=5-8 animals per group. *p≤0.05, **p≤0.01, ***p≤0.001, ****p≤0.0001 vs. vehicle, unless otherwise indicated; ^#p≤0.05 pioglitazone vs. vehicle Kruskal-Wallis (non-parametric One-Way ANOVA) test with Dunn's multiple comparisons test (FIG. 4A, FIG. 4B, FIG. 4D), repeated measures two-way ANOVA with Dunnett's multiple comparisons test (FIG. 4C), two-way ANOVA with Sidak's multiple comparisons test (FIG. 4E), Mann-Whitney test (FIG. 4F-G).
In addition to the effects of Compound 21/3 on hepatic DNL, the observed reductions in plasma TG in these models may be mediated by reduced intestinal TG absorption, as well as increased clearance of TG-containing lipoproteins from the circulation. […] Further, LXR inhibition with Compound pre-6/3 reduced intestinal lipid absorption as measured by reduced uptake of ^3H-labelled triolein tracer in HFD-fed mice (FIG. 4E). Additionally, Compound 21/3 reduced hepatic expression and plasma levels of ANGPTL3, an inhibitor of LPL, the predominant enzyme involved in the clearance of TG-rich lipoproteins from the circulation (FIG. 4F). Loss-of-function variants in ANGPTL3 are associated with reduced serum lipids and a lower risk of CAD (Dewey, Gusarova et al. 2017). […]

For data set [1], the system named is LXR target genes in the liver. Put plainly: Liver LXR target gene expression 24 hours after a single oral dose in mice. To be noted: 24 hours post-dose. In kind it is in vivo. The method, then: Data are shown as mean±SD. N=3-8 wells per treatment.
The efficacy of Compound 21/3 and Compound pre-6/3 were evaluated in diet-induced obese (DIO) mouse and rat models.

The next data set concerns DIO mice. Kind of data set: Diet-induced obese (DIO) mouse model. In kind it is in vivo.
Source text: as §1
Data are shown as mean±SD. N=5-8 animals per group. *p≤0.05, **p≤0.01, ***p≤0.001, ****p≤0.0001 vs. vehicle, unless otherwise indicated; ^#p≤0.05 pioglitazone vs. vehicle repeated measures two-way ANOVA with Dunnett's multiple comparisons test (FIG. 5A, FIG. 5C, FIG. 5D), Kruskal-Wallis (non-parametric one-way ANOVA) test with Dunn's multiple comparisons test (FIG. 5B, FIG. 5E).
The efficacy of Compound 21/3 was evaluated in three dysmetabolic rodent models including DIO mice, HFD-fed ZDF rats, and HFD-fed SD rats (FIG. 4 and FIG. 5). Briefly, DIO mice were fed a HFD (60% kcal from fat) for 14 weeks and treated with Compound 21/3 (0.3 and 1 mg/kg once daily by oral gavage) for three weeks, while ZDF and SD rats were fed HFD for two weeks prior to treatment with Compound 21/3 (0.1 and 1 mg/kg once daily by oral gavage) for two or three weeks, respectively.

The nature of data set [2]: Phase 1 study, SAD cohorts: plasma pharmacokinetics. In kind it is in vivo, human. To be noted: for AUC(0-inf) / Cmax / Tmax / half-life: both sexes, human, oral, plasma. The method, then: (§2) A double-blind, placebo-controlled, single- and multiple-ascending dose FIH Phase 1 study to evaluate the safety, tolerability, PK, and PD of Compound 21/3 in healthy adult subjects was performed. A total of up to 150 subjects were enrolled, including 100 subjects in Parts A and B, and up to 50 subjects in adaptive cohorts in Part C. Within each cohort, 10 subjects were randomized, including 8 subjects randomized to Compound 21/3 and 2 subjects to PTM (placebo-to-match). In single-dose cohorts in Parts A and in any Part C cohort evaluating a higher total daily dose than previously evaluated, safety and tolerability data collected through Day 2 from two sentinel subjects, one randomized to Compound 21/3 and one to PTM, were evaluated prior to dosing of the remaining subjects in each cohort.
Intensive PK sampling over 72 h postdose on Day 1 (SAD and MAD) and Day 14 (MAD) was performed. Compound 21/3 plasma concentrations were determined using validated liquid chromatography-tandem mass spectrometry assay. PK parameters were estimated via noncompartmental methods using Pheonix® WinNonlin® 6.2.1 and 8.3.4 (Certara, LP, Princeton, NJ).
Part A evaluated the safety, tolerability, PK, and PD of single-ascending doses of oral Compound 21/3 or placebo under fed conditions. Part A proceeded in up to 5 dose-escalation cohorts and governed by a review of safety, tolerability, and any available and relevant PK and/or PD data, and study-specific stopping criteria.

The next data set has as its system healthy subjects. Put plainly: Phase 1 study, SAD cohorts: safety and tolerability. In kind it is in vivo, human. To be noted: range over dose groups. As for the experimental part: as §2
An approximately even distribution of healthy male and non-pregnant, non-lactating female subjects 18 to 55 years of age, inclusive, were to be enrolled in the study. There were no significant medical conditions by history, physical examination, or laboratory evaluation. Subjects were not allowed to participate in more than one cohort of the study. Within each MAD cohort, attempts were made to enrich for >3 subjects with elevated TG and/or LDL-C. Following the completion of Screening and admission assessments, eligible subjects were to be enrolled on Day −1. […]

With `N#Cc1cccc(C#N)c1-c1c(-c2cccc(-c3ccc(C(=O)O)cc3Cl)c2)n(S(=O)(=O)c2ccc(C(F)F)cc2)c2ccc(F)cc12` [pre-6/3], the “intestinal lipid absorption (uptake of 3H-labelled triolein tracer)” value with HFD-fed (DIO) mice is reported as “reduced”.

Usually AUC(0-inf) stands for total exposure, with the tail of the curve extrapolated. A lower AUC(0-inf) goes with less exposure. One may read the Tmax as the time from dosing to the highest level. Usually half-life stands for the time in which the quantity being followed falls by half. In the case of `N#Cc1cccc(C#N)c1-c1c(-c2cccc(-c3ccc(C(=O)NCC(=O)O)cc3Cl)c2)n(S(=O)(=O)c2ccc(C(F)F)cc2)c2ccc(F)cc12` [Compound 21/3], in data set [1], the “target engagement in the liver (expression of LXR target genes)” value was “sustained target engagement”. The “expression of Hmgcr and Cyp7a1 in the liver and Abca1, Abcg5, Abcg8 in the intestine” value with DIO mice (DIO mice) is “dose-dependently reduced”. Further, the “expression of cholesterol efflux transporters Abca1 and Abcg1 in the buffy coat” value with DIO mice (DIO mice) was “did not alter”. In the data set with DIO mice (DIO mice), the “plasma TG levels” value is given as “reduced”. Besides, the “liver expression of DNL genes (Srebp1c, Fasn, Acaca, Scd1)” value in the data set on DIO mice (DIO mice, 0.3 and 1 mg/kg once daily oral, three weeks) was “dose-dependently reduced”. In addition, in the data set on DIO mice (DIO mice, p≤0.001), the “maximal reduction of liver TG versus vehicle” value was determined as 65%. Also, in the data set with DIO mice (DIO mice, p≤0.05), the “reduction of plasma total cholesterol (TC) at end of treatment compared with vehicle” value worked out at 49%. Also, the “intestinal Srebp1c expression” value in the data set on DIO mice (DIO mouse, ileum) is “dose-dependently reduced”. The “liver TC” value with DIO mice (dysmetabolic rodent models (FIG. 5B), particularly higher dose groups) is “statistically significant increase”. Further, the “liver biochemistry tests, plasma ALT or AST, compared with vehicle” value in the data set with DIO mice (dysmetabolic rodent models (FIG. 5C-D)) is “not associated with substantial elevations”. The total exposure AUC(0-inf) is 1.2 ng·h/mL in data set [2] (Day 1, 0.5 mg, mean); 8.5 ng·h/mL in data set [2] (Day 1, 2 mg, mean); 10 ng·h/mL in data set [2] (Day 1, 6 mg, mean); 17.1 ng·h/mL in data set [2] (Day 1, 12 mg, mean); 20.6 ng·h/mL in data set [2] (Day 1, 20 mg, mean). The Cmax is 0.37 ng/mL in data set [2] (Day 1, 0.5 mg, mean, read-out: Cmax); 0.54 ng/mL in data set [2] (Day 1, 2 mg, mean, read-out: Cmax); 3.33 ng/mL in data set [2] (Day 1, 6 mg, mean, read-out: Cmax); 4.69 ng/mL in data set [2] (Day 1, 12 mg, mean, read-out: Cmax); 6.79 ng/mL in data set [2] (Day 1, 20 mg, mean, read-out: Cmax); < 7 ng/mL in data set [2] (healthy subjects, read-out: maximal plasma concentrations (Cmax)). Moreover, the Tmax in data set [2] (Day 1, 0.5 mg, median) was 3.5 h; in data set [2] (Day 1, 2 mg, median), 3.75 h; in data set [2] (Day 1, 6 mg, median) it was 4 h; in data set [2] (Day 1, 12 mg, median), 3 h; in data set [2] (Day 1, 20 mg, median) it was 2.5 h; in data set [2] (healthy subjects, postdose), 3 to 4 h. Besides, the half-life in data set [2] (Day 1, 0.5 mg, median) was 2.1 h; in data set [2] (Day 1, 2 mg, median), 4.96 h; in data set [2] (Day 1, 6 mg, median) it was 1.37 h; in data set [2] (Day 1, 12 mg, median) it was 2.02 h; in data set [2] (Day 1, 20 mg, median), 2.36 h; in data set [2] (healthy subjects), 2 to 3 h. Moreover, the “dose proportionality of plasma exposure” value in data set [2] (healthy subjects) is “less than dose-proportional increases”. The “proportion of subjects with adverse events (AEs)” value with healthy subjects is 13-50%.
